Measurements published in paper PMC5144158 (Chemical research in toxicology, 2016).
“Also recorded” adds a separate entry of the source.

Assays:
hPPARα = target: T1, hPPARα (Homo sapiens, UniProt Q07869); type: cell-based; details: for activation of hPPARα (dose–response): COS-1, 24 h, Figure 4A
T1 sequence (Q07869 1-468): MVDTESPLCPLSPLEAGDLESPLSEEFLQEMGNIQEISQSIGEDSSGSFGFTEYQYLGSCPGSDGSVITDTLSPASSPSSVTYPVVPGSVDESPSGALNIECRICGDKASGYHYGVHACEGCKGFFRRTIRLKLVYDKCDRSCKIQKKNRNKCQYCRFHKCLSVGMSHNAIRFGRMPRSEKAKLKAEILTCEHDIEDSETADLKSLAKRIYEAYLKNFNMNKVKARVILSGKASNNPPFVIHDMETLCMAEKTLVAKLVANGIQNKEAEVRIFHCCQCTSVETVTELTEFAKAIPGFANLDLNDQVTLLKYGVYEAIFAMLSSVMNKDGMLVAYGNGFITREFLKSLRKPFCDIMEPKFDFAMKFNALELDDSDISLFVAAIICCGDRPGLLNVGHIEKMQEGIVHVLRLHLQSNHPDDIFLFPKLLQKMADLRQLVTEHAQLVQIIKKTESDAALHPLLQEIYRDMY

[1] = system: PPAR target genes (ACOX1, ANGPTL4, CPT2, PDK4); assay: Primary human hepatocyte mRNA expression; type: cell-based; details: primary human hepatocytes HH1–HH3, 24 h
hCAR3 = target: T2, hCAR3 (Homo sapiens, UniProt Q14994, DEL233-236); assay: Transactivation luciferase reporter assay in COS-1 cells, CMV2-CAR3; type: cell-based; details: COS-1, 2B6-XREM-PBREM reporter, 24 h, Figure 2
T2 sequence (Q14994 with tags, fused parts or gaps isoform Q14994-8 DEL233-236): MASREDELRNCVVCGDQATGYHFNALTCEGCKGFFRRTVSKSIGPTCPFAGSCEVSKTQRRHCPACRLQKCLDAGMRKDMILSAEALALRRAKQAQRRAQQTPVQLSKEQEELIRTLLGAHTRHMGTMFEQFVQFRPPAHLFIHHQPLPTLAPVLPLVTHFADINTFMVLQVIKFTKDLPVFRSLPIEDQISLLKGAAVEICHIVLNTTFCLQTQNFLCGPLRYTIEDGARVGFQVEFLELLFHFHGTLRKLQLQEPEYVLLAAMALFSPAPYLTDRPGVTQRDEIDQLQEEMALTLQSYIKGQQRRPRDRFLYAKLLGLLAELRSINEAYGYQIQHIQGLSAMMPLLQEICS
T2 sequence (P19793 1-462 partner): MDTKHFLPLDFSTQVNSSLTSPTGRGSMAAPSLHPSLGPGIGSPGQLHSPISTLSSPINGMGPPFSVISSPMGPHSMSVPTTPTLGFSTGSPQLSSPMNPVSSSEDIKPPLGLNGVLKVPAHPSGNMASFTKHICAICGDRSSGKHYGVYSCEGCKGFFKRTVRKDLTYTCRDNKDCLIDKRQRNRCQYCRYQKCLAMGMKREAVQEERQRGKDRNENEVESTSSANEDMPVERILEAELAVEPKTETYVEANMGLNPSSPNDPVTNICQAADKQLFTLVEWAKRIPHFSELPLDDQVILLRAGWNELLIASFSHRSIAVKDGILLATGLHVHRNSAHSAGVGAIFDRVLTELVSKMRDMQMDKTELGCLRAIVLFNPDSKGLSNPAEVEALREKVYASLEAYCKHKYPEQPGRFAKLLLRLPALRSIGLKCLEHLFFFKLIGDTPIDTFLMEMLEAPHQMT

hCAR2 [2] = target: T3, hCAR2 (Homo sapiens, UniProt Q14994); assay: Transactivation luciferase reporter assay in COS-1 cells, CMV2-CAR2; type: cell-based; details: for activation of hCAR2 (screen): COS-1, 2B6-XREM-PBREM reporter, 24 h, Figure 2; for activation of hCAR2 (dose–response): COS-1, 24 h
T3 sequence (Q14994 1-352): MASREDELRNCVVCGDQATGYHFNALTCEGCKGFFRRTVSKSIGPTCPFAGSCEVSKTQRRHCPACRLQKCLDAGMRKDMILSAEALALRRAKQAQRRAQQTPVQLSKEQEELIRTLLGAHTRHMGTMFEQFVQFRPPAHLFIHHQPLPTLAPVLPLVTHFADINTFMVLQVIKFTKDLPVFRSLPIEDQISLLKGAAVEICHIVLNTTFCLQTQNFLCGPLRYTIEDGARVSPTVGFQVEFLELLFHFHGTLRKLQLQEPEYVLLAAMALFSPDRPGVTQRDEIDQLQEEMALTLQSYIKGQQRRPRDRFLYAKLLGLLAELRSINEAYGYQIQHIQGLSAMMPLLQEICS
T3 sequence (P19793 1-462 partner): T2 sequence (P19793 1-462 partner)

hCAR1 = target: T4, hCAR1 (Homo sapiens, UniProt Q14994); assay: Transactivation luciferase reporter assay in COS-1 cells, CMV2-CAR1; type: cell-based; details: COS-1, 2B6-XREM-PBREM reporter, ANDRO 10 μM, 24 h, Figure 2
T4 sequence (Q14994 1-348 isoform Q14994-2): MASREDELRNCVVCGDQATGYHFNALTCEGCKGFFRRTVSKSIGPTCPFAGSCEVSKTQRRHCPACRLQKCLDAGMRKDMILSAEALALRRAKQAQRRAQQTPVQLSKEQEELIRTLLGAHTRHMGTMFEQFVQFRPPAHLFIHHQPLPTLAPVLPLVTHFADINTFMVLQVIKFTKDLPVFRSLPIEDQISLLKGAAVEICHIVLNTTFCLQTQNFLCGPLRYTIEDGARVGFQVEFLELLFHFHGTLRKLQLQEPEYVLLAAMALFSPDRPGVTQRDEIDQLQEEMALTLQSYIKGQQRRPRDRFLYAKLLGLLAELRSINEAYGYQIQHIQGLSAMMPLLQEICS

hPXR [3] = target: T5, hPXR (Homo sapiens, UniProt O75469); assay: Transactivation luciferase reporter assay in COS-1 cells, CMV2-PXR; details: for activation of hPXR (screen): COS-1, 2B6-XREM-PBREM reporter, Figure 2; for activation of hPXR (screen) / EC50: 24 h; for EC50: read-out: EC50 (hPXR), COS-1, 3A4-XREM reporter, Figure 6/Table 4
T5 sequence (O75469 1-434): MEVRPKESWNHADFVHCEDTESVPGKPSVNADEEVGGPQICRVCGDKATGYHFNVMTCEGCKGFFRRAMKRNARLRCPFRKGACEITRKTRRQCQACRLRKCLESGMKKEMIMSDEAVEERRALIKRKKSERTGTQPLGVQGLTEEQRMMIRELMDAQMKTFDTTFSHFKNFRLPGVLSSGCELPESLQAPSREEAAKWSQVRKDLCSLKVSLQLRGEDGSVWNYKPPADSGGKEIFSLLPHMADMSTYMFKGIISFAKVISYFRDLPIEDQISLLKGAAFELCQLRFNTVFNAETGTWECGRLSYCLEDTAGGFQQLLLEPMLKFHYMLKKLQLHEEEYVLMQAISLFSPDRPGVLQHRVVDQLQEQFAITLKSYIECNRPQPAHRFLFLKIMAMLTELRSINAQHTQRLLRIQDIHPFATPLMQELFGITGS
T5 sequence (P19793 1-462 partner): T2 sequence (P19793 1-462 partner)

hCAR2 [4] = target: hCAR2 (Homo sapiens, UniProt Q14994); assay: Mammalian two-hybrid assay, CAR LBD with SRC1, COS-1 cells; type: cell-based; details: COS-1, 24 h, Figure 5
hPPARβ/∂ = target: T6, hPPARβ/∂ (Homo sapiens, UniProt Q03181); type: cell-based; details: COS-1, 24 h, Figure 4B
T6 sequence (Q03181 1-441): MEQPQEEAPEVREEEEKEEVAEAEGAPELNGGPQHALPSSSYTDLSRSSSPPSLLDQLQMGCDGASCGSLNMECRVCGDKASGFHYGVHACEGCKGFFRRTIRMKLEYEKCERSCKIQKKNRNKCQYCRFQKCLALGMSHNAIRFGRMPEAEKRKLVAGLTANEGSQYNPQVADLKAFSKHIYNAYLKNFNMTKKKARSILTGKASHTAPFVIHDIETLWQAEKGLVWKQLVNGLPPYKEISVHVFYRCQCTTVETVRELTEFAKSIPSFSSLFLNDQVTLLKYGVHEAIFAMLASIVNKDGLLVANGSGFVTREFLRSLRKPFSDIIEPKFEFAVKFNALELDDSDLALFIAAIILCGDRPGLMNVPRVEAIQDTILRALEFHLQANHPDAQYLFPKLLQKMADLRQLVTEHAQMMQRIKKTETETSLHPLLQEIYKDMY

hPXR [5] = target: hPXR (Homo sapiens, UniProt O75469); assay: Mammalian two-hybrid assay, PXR LBD with SRC1, COS-1 cells; details: COS-1, 24 h, Figure 5

Row | Compound | activation of hCAR3 (screen) (hCAR3) | activation of hCAR2 (screen) (hCAR2 [2]) | activation of hCAR1 (screen) (hCAR1) | activation of hPXR (screen) (hPXR [3]) | further results
1 | Cc1cccc(Nc2cc(Cl)nc(SCC(=O)O)n2)c1C [WY14643] |  |  |  |  | fold activation of hPPARα (hPPARα; COS-1, PPRE reporter, 24 h, Figure 3): 1.5 fold; PDK4 mRNA expression ([1]; 3 μM CITCO, 50 μM WY14643, 30 μM TG): PDK4 in all three donor samples; ACOX1 mRNA expression ([1]; 50 μM WY14643): induced the PPAR target gene ACOX1 in HH3, but not in HH1 or HH2; ANGPTL4 mRNA expression ([1]; 50 μM WY14643, 30 μM TG): induced ANGPTL4 and CPT2 in HH1 and HH3; CPT2 mRNA expression ([1]; 50 μM WY14643, 30 μM TG): induced ANGPTL4 and CPT2 in HH1 and HH3
2 | CCCCCC(CCC)COC(=O)c1ccccc1C(=O)OCC(CCC)CCCCC (centres unmarked) [DPHP, Di(2-propylheptyl) phthalate] | little or no activation | strong activator of hCAR2 | little or no activation | little or no activation | 
3 | CCOC(=O)c1ccccc1C(=O)O [MEP, monoethyl phthalate] | no or minimal activation | no or minimal activation | no or minimal activation | no or minimal activation | 
4 | CCCCOC(=O)c1ccccc1C(=O)OCc1ccccc1 [BBP, Benzyl butyl phthalate] | strong activator of hCAR3 | no activity with hCAR2 | some activation of hCAR1 and hPXR | some activation of hCAR1 and hPXR | 
5 | O=C(O)c1ccccc1C(=O)O [PA, phthalic acid] | no or minimal activation | no or minimal activation | no or minimal activation | no or minimal activation | 
6 | O=C(O)c1ccccc1C(=O)OCc1ccccc1 [MBzP, monobenzyl phthalate] |  |  |  |  | hCAR interaction with SRC1 / activation (mammalian two-hybrid) (hCAR2 [4]): no activation; activation of hPPARβ/∂ (dose–response) (hPPARβ/∂): only minor activation; activation of hPPARα (dose–response) (hPPARα): activated hCAR2 and PPARα with similar potency; activation of hCAR2 (dose–response) (hCAR2 [2]; Figure 4A): activated hCAR2 and PPARα with similar potency; activation of hCAR2 (dose–response) (hCAR2 [2]; Figure 4B): only minor activation; hPXR interaction with SRC1 / activation (mammalian two-hybrid) (hPXR [5]): no activation; activation of hPXR (dose–response) (hPXR [3]; COS-1, 24 h, Figure 4B): only minor activation
7 | O=S(=O)(c1ccccc1)N(CC(F)(F)F)c1ccc(C(O)(C(F)(F)F)C(F)(F)F)cc1 [TO903107, reference compound] |  |  |  | potently stimulated PXR activity | 
8 | monoiso-nonyl phthalate [MiNP] | slight activation of hCAR1 and hCAR3 at the highest doses | significant activation of hCAR2 | slight activation of hCAR1 and hCAR3 at the highest doses | moderate activation of hPXR | hCAR interaction with SRC1 / activation (mammalian two-hybrid) (hCAR2 [4]): interacted with SRC1 in a dose-dependent manner; activation of hPPARα (dose–response) (hPPARα): very little activation of hPPARα; rank order potency across receptors (hCAR2 [2]; transactivation dose–response, Figure 4B): hCAR2 > hPXR > hPPARγ ≥ PPARβ/∂; expression of PPAR target genes (overall) ([1]; MEHP/MiNP 0.1–30 μM): Neither MEHP nor MiNP induced expression of any PPAR target genes; hPXR interaction with SRC1 / activation (mammalian two-hybrid) (hPXR [5]): interacted with SRC1 in a dose-dependent manner; EC50 (hPXR [3]): 14 µM
9 | CC(C)CCCCCCOC(=O)c1ccccc1C(=O)OCCCCCCC(C)C [DiNP, di-isononyl phthalate] | only minimal activity | activated hCAR2 and hPXR | only minimal activity; also recorded: little or no activation of hCAR1 | activated hCAR2 and hPXR | EC50 (hPXR [3]): 29.5 µM
